What was measured:
[1] = tested on: procollagen I gene expression; test: Expression of fibrotic marker genes following bleomycin-induced pulmonary fibrosis (real time PCR, lung): procollagen I; assay type: in vivo, Male Wistar rats; conditions: bleomycin 10 U/kg intratracheal; daily oral treatment with 50 mg/kg, days 1-21; lung RNA at day 21; vs bleomycin + vehicle; FIG. 2
Experimental: (§1) All experiments were performed in accordance with German guidelines for animal welfare, performed by persons certified to work with animals and approved by the responsible authorities. Male Wistar rats were intratracheally injected with Bleomycin sulfate (10 U/kg body weight in 300 μl saline) or saline alone (saline control) using a catheter (0.5 mm internal diameter, […]) through the nasal passage, following exposure to the anaesthetic Isofluorane for 5 minutes. The following day, the rats were orally treated with Example A (compound (12)) or saline suspended in 1 ml 0.1% Natrosol. Control rats were administered 1 ml 0.1% Natrosol (vehicle control).
(§2) 21 days following bleomycin instillation, the rats were killed with a lethal intraperitoneal injection of Narcoren™ (Pentobarbital Sodium, Rhone Merieux). The lungs were then removed, blotted dry and half was snap frozen in liquid nitrogen and stored at −80° C. The other half was fixed in 4% formalin for subsequent paraffin embedding and histology.
(§3) (B) Effect of a representative compound on expression of fibrotic marker genes following bleomycin-induced pulmonary fibrosis.
(§4) One part of the frozen lung tissue dedicated to investigation of gene expression was cut into small pieces using a sterile scalpel blade. […] The concentration of each sample was then measured using a spectrophotometer. […]

[2] = tested on: fibronectin gene expression; test: Expression of fibrotic marker genes following bleomycin-induced pulmonary fibrosis (real time PCR, lung): fibronectin; assay type: in vivo, Male Wistar rats; conditions: bleomycin 10 U/kg intratracheal; daily oral treatment with 50 mg/kg, days 1-21; lung RNA at day 21; vs bleomycin + vehicle; FIG. 3
Experimental: as §1, §2, §3, §4

[3] = tested on: bleomycin-induced pulmonary fibrosis; test: Effect on lung morphology following bleomycin-induced pulmonary fibrosis (histology, Masson's Trichrome staining); assay type: in vivo, Male Wistar rats; conditions: bleomycin 10 U/kg intratracheal; daily oral treatment with 50 mg/kg, days 1-21; lungs removed 21 days after bleomycin; FIG. 1C
Experimental: (A) Effect of a representative compound on lung morphology following bleomycin-induced pulmonary fibrosis. Bleomycin sulfate (Bleomycin […]) was purchased from a local pharmacy. All experiments were performed in accordance with German guidelines for animal welfare, performed by persons certified to work with animals and approved by the responsible authorities. Male Wistar rats were intratracheally injected with Bleomycin sulfate (10 U/kg body weight in 300 μl saline) or saline alone (saline control) using a catheter (0.5 mm internal diameter, […]) through the nasal passage, following exposure to the anaesthetic Isofluorane for 5 minutes. The following day, the rats were orally treated with Example A (compound (12)) or saline suspended in 1 ml 0.1% Natrosol. Control rats were administered 1 ml 0.1% Natrosol (vehicle control). [table] 21 days following bleomycin instillation, the rats were killed with a lethal intraperitoneal injection of NarcorenTM (Pentobarbital Sodium, Rhone Merieux). The lungs were then removed, blotted dry and half was snap frozen in liquid nitrogen and stored at -80° C. The other half was fixed in 4% formalin for subsequent paraffin embedding and histology. […] Collagen deposition was assessed using Masson's Trichrome staining.

Compound: COC(=O)c1ccc2c(c1)NC(=O)/C2=C(\Nc1ccc(C(=O)N2CCN(C)[C@@H](C)C2)cc1)c1ccccc1 [(60), (S)-3-(Z)-[1-{4-[(3,4-dimethyl-piperazin-1-yl)-carbonyl]-phenylamino}-1-phenyl-methylidene]-6-methoxycarbonyl-2-indolinone]
- melting point: 265 to 266 °C

Compound: COC(=O)c1ccc2c(c1)NC(=O)/C2=C(\Nc1ccc(C(=O)N2CCN(C)CC2)cc1)c1ccccc1 [Example A, methyl 3-(Z)-[1-{4-[(4-methyl-piperazin-1-yl)-carbonyl]-phenylamino}-1-phenyl-methylidene]-2-indolinone-6-carboxylate]
- expression of fibrotic marker genes: procollagen I (normalized to 18S) [1]: significant (p<0.0001) inhibition
- expression of fibrotic marker genes: fibronectin (normalized to 18S) [2]: significant (p<0.0001) inhibition
- lung fibrosis (lung morphology, collagen deposition by Masson's Trichrome staining) [3]: nearly complete reversal of lung fibrosis

Source: patent US20090048267A1, “MEDICAMENTS FOR THE TREATMENT OR PREVENTION OF FIBROTIC DISEASES” (Boehringer Ingelheim International GmbH, priority 2004, published 2009)
